Measurements as given in patent publication US12616713B2, “Methods for enhancing vascular density” (priority 2016, dated 2026).
“Also recorded” adds a separate entry of the source.

Columns and labels:
Type in all cases: in vivo, mouse
C57BL/6J mice [1] = experiment: Post-exercise blood lactate; details: 20-month old mice
Procedure: Mice were fasted for 6 h and blood glucose levels were measured by tail bleed (Accu Check Performa, Roche). Blood lactate was measured before and immediately after treadmill exercise training for 20 minutes at 15 meters/minute by tail bleed (Accutrend Plus, Roche). For VEGF analysis, whole blood was drawn from the retroorbital sinus under brief isoflurane anesthesia. The serum was collected and assayed for VEGF expression by ELISA (Eve Technologies, Canada). Urine was collected after a 2 h fast and analyzed for creatinine levels using a colorimetric assay kit (Cayman chemical, US) as per manufacturer's protocol.

C57BL/6J mice [2] = experiment: Contrast-enhanced ultrasound of hindlimb muscle perfusion; details: 20-month old mice, NMN-treated versus vehicle
Procedure: Mice were anesthetized with isoflurane (1.5-2%, 500 ml 02/min), hindlimbs were shaved using depilatory cream and a 27-gauge catheter was placed into each mouse's tail and kept in place with surgical tape. Each mouse was placed in a supine position on a platform heated to 38° C. with each paw taped to a surface electrode to monitor ECG, heart rate, and respiratory rate. Contrast-enhanced ultrasound (CEU) (Vevo 2100, Visualsonics, Canada) was performed at an imaging frequency of 18 MHz. The probe was placed on the medial side of the leg to image the lower hindlimb in a sagittal plane. A bolus injection of microbubbles (Vevo MicroMarker, Canada) were injected through the tail vein catheter according to the manufacturer's instructions. A cine loop was recorded at a frame rate of 20 frames/s for a total of 1,000 frames. Curve fit analysis was used to measure echo power over time. The difference in maximum and minimum video intensity was determined as the peak enhancement and was the variable used to determine muscle perfusion.

C57BL/6J mice [3] = experiment: Metabolic chambers (CLAMS) oxygen consumption
Procedure: Metabolic chambers (CLAMS™, Columbus Instruments, Columbus, OH) were used to perform whole-body measurements of metabolic function. Following acclimatization to the metabolic chambers, individually housed mice were monitored continuously over 48 h to determine oxygen consumption, carbon dioxide production, respiratory exchange ratio, energy expenditure, food intake, water intake and activity. Body composition (fat mass, lean mass, and total body water) was measured by EchoMRI (Echo MRI™ 900).

C57BL/6J mice [4] = experiment: Treadmill endurance testing
Procedure: Endurance testing. Treadmill tests were carried out on a 1050-RM Exer 3/6 Open Treadmill (Columbus Instruments, OH). Mice were acclimatized to the treadmill system for 3 days prior to endurance testing by running at 10-15 m/min for 20 min. In low intensity endurance testing, the speed started at 5 m/min for 5 min (warm up), and then the speed was increased by 1 every minute until 21 m/min and kept constant. In high intensity endurance testing, the speed started at 13 m/min for 5 min (warm up) at 5° inclination, and then the speed was increased by 1 every minute until 20 m/min and kept constant for 20 min. Every 20 min, the speed was increased by 5 m/min and held constant for 20 min. Mice were considered exhausted when they sat on the shocker plate for more than 10 sec without attempting to reinitiate running.

C57BL/6J mice [5] = experiment: Skeletal muscle capillaries by CD31/laminin immunofluorescence in old mice; details: NMN 400 mg/kg/day, two months
Text: SIRT1-iKO, SIRT1-Tg and SIRT1^STOP mice were described previously (Firestein et al., 2008, PLoS One 3, e2020; Price et al., 2012, Cell Metab 15, 675-690). Tie2Cre and Sirt1^flox/flox mice were purchased from Jackson Laboratory (Bar Harbor, ME). MCK-PGC-1α and MyogCre mice were gifts from Dr. Bruce Spiegelman (Dana Farber Cancer Center, MA) and Dr. Eric N. Olson (UT Southwestern, Dallas, TX), respectively. mT-STOP^flox/flox, Gfp mouse was generated in house by E.O.W., which consists of an allele driven by ubiquitous actin B promoter, which has loxP sites flanking membrane-targeted tandem dimer Tomato (mT) and transcriptional STOP cassette, followed by a GFP coding sequence. […] SIRT1-iKO mice were fed tamoxifen (360 mg/kg) diet for five weeks to elicit whole-body SIRT1 exon 4 excision as described previously (Price et al., 2012). […] NMN stock was changed twice per week and […]4137 was supplemented daily. Axitinib (30 mg/kg/day) was given via food and changed daily. Freshly isolated whole quadriceps and gastrocnemius muscle samples were mounted in OCT compound (Tissue-Tek), placed in an isopentane bath and slowly cooled in liquid nitrogen. Transverse sections at 20 μm-thickness were sectioned on a cryostat (Leica). The sections were fixed in pre-cooled acetone (-20° C.) for 10 min and washed with PBS. […] Slides were washed with PBST and then incubated with anti-rat Alexa Fluor 488-conjugated (Life Technologies) and anti-rabbit Alexa Fluor 594-conjugated (Life Technologies) antibodies diluted to 1:500 in blocking buffer for 2 h at room temperature. Slides were washed again with PBST and mounted with Fluoroshield with DAPI mounting medium (Sigma). Images were acquired using a confocal fluorescence microscope (Nikon A1). Quantification of capillaries and capillary density were performed using ImageJ software. TUNEL staining was performed in muscle sections using in situ BrdU-Red DNA fragmentation (TUNEL) assay kit (Abcam) as per manufacturer's protocol.

[6] = 20-month old mice, low intensity treadmill test

`NC(=O)c1ccc[n+]([C@@H]2O[C@H](COP(=O)([O-])O)[C@@H](O)[C@H]2O)c1` [NMN, nicotinamide mononucleotide] was tested, and the post-exercise blood lactate (C57BL/6J mice [1]) was 3.9 mmol/L, the “resting muscle perfusion (peak enhancement)” value (C57BL/6J mice [2]) was “increased resting muscle perfusion” and the “oxygen consumption higher than non-treated control mice” value (C57BL/6J mice [3]; dark cycle) was 23%. The “oxygen consumption higher than non-treated control mice” value (C57BL/6J mice [3]; light cycle) was 30%, the “distance run further than untreated mice” value (C57BL/6J mice [4]; 20-month old mice, high-endurance exercise regimen) was 80% and the “distance run until exhaustion” value (C57BL/6J mice [4]; [6]) was 686 meters. The “low-intensity endurance, improvement over the untreated mice” value (C57BL/6J mice [4]; [6]) was 56%, the “time and distance to exhaustion (endurance)” value (C57BL/6J mice [4]; 31-month old mice, low intensity treadmill test) was “significant trend towards increased time and distance to exhaustion” and the “exercise capacity, including endurance” value (C57BL/6J mice [4]; mice (summary statement)) was “increased exercise capacity”. For the same molecule, the gastrocnemius capillarity (C57BL/6J mice [5]; 20-month old WT mice) was “increased capillaries; also recorded: increased gastrocnemius capillarity”, the gastrocnemius capillarity (C57BL/6J mice [5]; 20-month old tamoxifen-treated SIRT1-iKO mice) was “not in SIRT1-iKO mice; also recorded: no change” and the “number of capillaries and capillary density (quadriceps, gastrocnemius)” value (C57BL/6J mice [5]; old mice) was “restored”.
